Results as given in patent US8680159B2, “Bradykinin 1 receptor modulating compounds” (Gruenenthal GmbH, priority 2010, dated 2014).

Columns and labels:
[1] = molecular target: T1, human B1R receptor (CHO K1 cells stably transfected with the human B1R gene) (Homo sapiens, UniProt P46663); experiment: Functional study on the bradykinin receptor 1 (B1R), Ca2+ fluorescence (Fluo-4) FLIPR/Novostar assay, hB1R cells; format: cell-based; settings: CHO-K1, read-out: % inhibition (human B1R) at 10 μM
T1 construct: expressed in transfected cells; host or cells: CHO K1 cells (Chinese hamster ovary), stably transfected
T1 sequence (P46663 1-353): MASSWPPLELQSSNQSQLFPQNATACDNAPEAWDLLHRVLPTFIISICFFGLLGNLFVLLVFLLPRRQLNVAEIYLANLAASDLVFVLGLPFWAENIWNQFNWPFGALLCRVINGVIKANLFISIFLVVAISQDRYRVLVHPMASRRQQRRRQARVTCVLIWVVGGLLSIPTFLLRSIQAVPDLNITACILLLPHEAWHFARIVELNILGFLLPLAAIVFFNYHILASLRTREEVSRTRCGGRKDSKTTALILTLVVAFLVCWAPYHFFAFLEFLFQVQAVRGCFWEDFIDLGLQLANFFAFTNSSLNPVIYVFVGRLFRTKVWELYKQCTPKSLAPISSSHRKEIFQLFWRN
How it was run: (§1)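 Stably transfected CHO K1 cells carrying human or rat B1R were Fluo-4 loaded and Ca2+ fluorescence read by FLIPR or Novostar. Compounds were added first at 10 μM for % activation, then the EC80 agonist was applied after 6-20 min (human: Lys-Des-Arg9-bradykinin; rat: Des-Arg9-bradykinin). % inhibition is relative to maximum achievable inhibition, and IC50 comes from concentration series.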

[2] = molecular target: T2, B1R receptor of the rat (CHO K1 cells stably transfected with the B1R gene of the rat) (Rattus norvegicus, UniProt P97583); experiment: Functional study on the bradykinin receptor 1 (B1R), Ca2+ fluorescence (Fluo-4) FLIPR/Novostar assay, rB1R cells; format: cell-based; settings: CHO-K1, 10 μM, read-out: % inhibition (rat B1R) at 10 μM
T2 construct: expressed in transfected cells; host or cells: CHO K1 cells (Chinese hamster ovary), stably transfected
T2 sequence (P97583 1-337): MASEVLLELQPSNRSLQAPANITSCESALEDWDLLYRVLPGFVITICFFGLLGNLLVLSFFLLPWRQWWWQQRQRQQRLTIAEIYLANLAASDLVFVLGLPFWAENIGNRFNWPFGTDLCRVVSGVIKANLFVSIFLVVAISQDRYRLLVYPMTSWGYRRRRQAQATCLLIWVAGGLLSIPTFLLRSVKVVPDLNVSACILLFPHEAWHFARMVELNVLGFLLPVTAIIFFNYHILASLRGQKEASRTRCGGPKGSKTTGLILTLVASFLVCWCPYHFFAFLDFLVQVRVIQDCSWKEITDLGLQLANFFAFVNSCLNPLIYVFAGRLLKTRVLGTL
How it was run: as §1

SMILES	inhibition at 10 µM [1]	inhibition at 10 µM [2]
CN(C(=O)c1ccc2c(c1)[C@H](NC(=O)c1ccccc1Cl)CC2)C1CCN(c2nccn2C)CC1 [Example H-180, (3R)-3-[(2-Chloro-benzoyl)amino]-N-methyl-N-[1-(1-methyl-1H-imidazol-2-yl)-piperidin-4-yl]-2,3-dihydro-1H-indene-5-carboxylic acid amide]	89%	104%
Cc1cncc(N2CCC(N(C)C(=O)c3ccc4c(c3)[C@H](NC(=O)c3ccccc3Cl)CC4)CC2)n1 [Example H-181, (3R)-3-[(2-Chloro-benzoyl)amino]-N-methyl-N-[1-(6-methyl-pyrazin-2-yl)-piperidin-4-yl]-2,3-dihydro-1H-indene-5-carboxylic acid amide]	77%	100%
CN(C(=O)c1ccc2c(c1)[C@H](NC(=O)c1ccccc1Cl)CC2)C1CCN(c2ccncc2)C(=O)C1 (stereo partly drawn) [Example H-182, (3R)-3-[(2-Chloro-benzoyl)amino]-N-methyl-N-(2-oxo-1-pyridin-4-yl-piperidin-4-yl)-2,3-dihydro-1H-indene-5-carboxylic acid amide]	15%	59%
CN(C(=O)c1ccc2c(c1)[C@H](NC(=O)c1ccccc1Cl)CC2)C1CCN(c2ccncc2C(F)(F)F)CC1 [Example H-183, (3R)-3-[(2-Chloro-benzoyl)amino]-N-methyl-N-[1-[3-(trifluoromethyl)-pyridin-4-yl]-piperidin-4-yl]-2,3-dihydro-1H-indene-5-carboxylic acid amide]	93%	101%
CN(C)c1cc(C2CCC(N(C)C(=O)c3ccc4c(c3)[C@H](NC(=O)c3ccccc3Cl)CC4)CC2)ccn1 (stereo partly drawn) [Example H-184, (3R)-3-[(2-Chloro-benzoyl)amino]-N-[4-(2-dimethylamino-pyridin-4-yl)-cyclohexyl]-N-methyl-2,3-dihydro-1H-indene-5-carboxylic acid amide]	72%	105%
CN(C)c1cc(N2CCC(N(C)C(=O)c3ccc4c(c3)[C@H](N(C)C(=O)CCC3CCCC3)CC4)CC2)ccn1 [Example H-185, (3R)-3-(3-Cyclopentyl-propanoyl-methyl-amino)-N-[1-(2-dimethylamino-pyridin-4-yl)-piperidin-4-yl]-N-methyl-2,3-dihydro-1H-indene-5-carboxylic acid amide]	100%	105%
CN(C)c1nccc(N2CCC(N(C)C(=O)c3ccc4c(c3)[C@H](N(C)C(=O)CCC3CCCC3)CC4)CC2)n1 [Example H-186, (3R)-3-(3-Cyclopentyl-propanoyl-methyl-amino)-N-[1-(2-dimethylamino-pyrimidin-4-yl)-piperidin-4-yl]-N-methyl-2,3-dihydro-1H-indene-5-carboxylic acid amide]	99%	103%
